The results in this text go back to patent US8691218B2, “Vermin extermination using lysozyme, salt or biological fragment thereof, or lysozyme-related peptide as an egg recognition pheromone” (National University Corporation Okayama University, priority 2007, dated 2014).

This test deals with Reticulitermes speratus workers (worker termites). Put plainly: egg recognition activity: conveyance of coated mimetic eggs (glass beads) into the egg mass in a petri dish. Format: in vivo. The following applies: lysozyme samples tested on termites. As for the experimental part: Egg recognition activities of a termite egg extract, lysozyme purified from the termite egg extract, a termite egg extract degraded by proteinase, egg white lysozyme, cellulase, a mixture of egg white lysozyme and cellulase, and 30% glycerin aqueous solution as a control were investigated by using Reticulitermes speratus workers (worker termites).
Each test samples was prepared as follows.
800 μL of ultrapure water was added to 400 mg of Reticulitermes speratus eggs in an Eppendorf tube, and homogenized, and subjected to ultrasonic treatment for 5 minutes, and centrifugation was performed at 15,000 rpm for 30 minutes. The supernatant was lyophilized, and 5.0 mg of the lyophilized powder was dissolved in 100 μL of 30% glycerin aqueous solution (termite egg extract). The termite egg extract prepared in the same manner as described above was purified by BioRex 70 (BioRad Laboratories, CA, USA) cation-exchange resin, and further, lysozyme fractions were isolated by Q-1 column chromatography (BioRad Laboratories, CA, USA) and Methyl HIC column chromatography (BioRad Laboratories, CA, USA), and 1.0 mg of lyophilized powder thereof was dissolved in 20 μL of 30% glycerin aqueous solution (lysozyme isolated from termite egg extract). […]

Regarding “lysozyme derived from chicken egg white: egg white lysozyme (SIGMA) dissolved in 30% glycerin aqueous solution”, the “egg recognition activity of termites” value is reported as “high activity”.
